Source: ChEMBL document CHEMBL4359836, “Synthesis and Biological Assessment of Pyrrolobenzoxazine Scaffold as a Potent Antioxidant” (J Med Chem, 2019)
Calls of active or inactive are those of the source. The calls are words filed in the database; no cut-off is given here.

What was measured:
[1] = Antioxidant activity in pH 7.4 phosphate buffer assessed as H2O2 scavenging activity by measuring H2O2 decomposition at 1.34 to 10.72 uM by spectrophotometric analysis; type: functional
[2] = Pro-oxidant activity in pH 7.4 potassium phosphate buffer assessed as reduction in CuCl2/ascorbic acid induced hydroxyl radical scavenging activity at > 66 uM in presence of deoxyribose by measuring deoxyribose degradation product formation after 20 mins by thiobarbituric acid based absorbance analysis
[3] = Antioxidant activity in pH 7.4 phosphate buffer assessed as DPPH radical scavenging activity after 30 mins by spectrophotometric analysis; type: functional
[4] = Antioxidant activity in pH 7.4 phosphate buffer assessed as DPPH radical scavenging activity at 64 uM after 30 mins by spectrophotometric analysis (reference value: 0.811 +/- 0.02%); type: functional
[5] = Antioxidant activity in pH 7.4 phosphate buffer assessed as DPPH radical scavenging activity by measuring trolox equivalent antioxidant capacity by measuring IC50 Trolox/IC50 test compound ratio after 30 mins by spectrophotometric analysis; type: functional
[6] = Effect on GSH level in goat cardiac mitochondria at 8.25 to 66 uM after 1 hr by DTNB reagent based method; type: ADME, subcellular, Capra hircus, Heart, Mitochrondria
[7] = system: Mitochondria; experiment: Antioxidant activity in goat cardiac mitochondria assessed as inhibition of CuCl2/ascorbic acid-induced lipid peroxidation at 8.25 uM after 1 hr by thiobarbituric acid based UV-Visible spectrophotometric method (reference value: 60.11%); type: functional, subcellular; details: Capra hircus, Heart, Mitochrondria
[8] = system: Mitochondria; experiment: Antioxidant activity in goat cardiac mitochondria assessed as inhibition of CuCl2/ascorbic acid-induced lipid peroxidation at 16.5 uM after 1 hr by thiobarbituric acid based UV-Visible spectrophotometric method (reference value: 60.11%); type: functional, subcellular; details: Capra hircus, Heart, Mitochrondria
[9] = system: Mitochondria; experiment: Antioxidant activity in goat cardiac mitochondria assessed as inhibition of CuCl2/ascorbic acid-induced lipid peroxidation at 33 uM after 1 hr by thiobarbituric acid based UV-Visible spectrophotometric method (reference value: 60.11%); type: functional, subcellular; details: Capra hircus, Heart, Mitochrondria
[10] = system: Mitochondria; experiment: Antioxidant activity in goat cardiac mitochondria assessed as inhibition of CuCl2/ascorbic acid-induced protein carbonyl content at 16.5 uM after 1 hr by DNPH assay relative to control; type: functional, subcellular; details: Capra hircus, Heart, Mitochrondria
[11] = system: Mitochondria; experiment: Antioxidant activity in goat cardiac mitochondria assessed as inhibition of CuCl2/ascorbic acid-induced manganese superoxide dismutase after 1 hr by pyrogallol autoxidation method; type: functional, subcellular; details: Capra hircus; Heart; Mitochrondria
[12] = system: Mitochondria; experiment: Antioxidant activity in goat cardiac mitochondria assessed as reversal of CuCl2/ascorbic acid-induced reduction in GSH level at 16.5 uM after 1 hr by DTNB reagent based method relative to control; type: functional, subcellular; details: Capra hircus, Heart, Mitochrondria
[13] = system: Mitochondria; experiment: Antioxidant activity in goat cardiac mitochondria assessed as reversal of CuCl2/ascorbic acid-induced reduction in ICDH level at 66 uM using isocitrate as substrate after 1 hr relative to control; type: functional, subcellular; details: Capra hircus, Heart, Mitochrondria
[14] = system: Mitochondria; experiment: Antioxidant activity in goat cardiac mitochondria assessed as reversal of CuCl2/ascorbic acid-induced reduction in alpha-KGDH level at 66 uM using alpha-ketoglutarate as substrate after 1 hr relative to control; type: functional, subcellular; details: Capra hircus, Heart, Mitochrondria
[15] = system: Mitochondria; experiment: Antioxidant activity in goat cardiac mitochondria assessed as reversal of CuCl2/ascorbic acid-induced reduction in SDH level at 16.5 uM using succinate as substrate after 1 hr by spectrophotometric analysis relative to control; type: functional, subcellular; details: Capra hircus, Heart, Mitochrondria
[16] = species on record: Capra hircus; experiment: Effect on PDH in goat cardiac mitochondria assessed as reversal of CuCl2/ascorbic acid induced reduction in Vmax at 66 uM using sodium pyruvate as substrate after 1 hr by Lineweaver-Burk double reciprocal plot analysis; details: Heart
[17] = Effect on intactness in goat cardiac mitochondria at 66 uM after 1 hr by Janus green-B staining based confocal microscopic method; type: ADME, subcellular, Capra hircus, Heart, Mitochrondria
[18] = system: Mitochondria; experiment: Protective activity against CuCl2/ascorbic acid-induced oxidative damage in goat cardiac mitochondria assessed as reversal of CuCl2/ascorbic acid-induced reduction in fluorescence intensity at 66 uM after 1 hr by Janus green-B staining based confocal microscopic method relative to control; type: functional, subcellular; details: Capra hircus, Heart, Mitochrondria
[19] = system: Mitochondria; experiment: Protective activity against CuCl2/ascorbic acid-induced apoptotic alteration in goat cardiac mitochondria assessed as reversal of CuCl2/ascorbic acid-induced reduction in cytochrome c oxidoreductase activity incubated for 1 hr and measured at 10 secs time interval for 90 secs by spectrophotometric analysis; type: functional, subcellular; details: Capra hircus; Heart; Mitochrondria
[20] = system: Mitochondria; experiment: Protective activity against CuCl2/ascorbic acid-induced apoptotic alteration in goat cardiac mitochondria assessed as reversal of CuCl2/ascorbic acid-induced reduction in cytochrome c oxidoreductase activity at 8.25 uM incubated for 1 hr and measured at 10 secs time interval for 90 secs by spectrophotometric analysis (reference value: 47.82%); type: functional, subcellular; design: scale not given: the % may be the effect or the level left; details: Capra hircus, Heart, Mitochrondria
[21] = system: Mitochondria; experiment: Protective activity against CuCl2/ascorbic acid-induced apoptotic alteration in goat cardiac mitochondria assessed as reversal of CuCl2/ascorbic acid-induced reduction in cytochrome c oxidoreductase activity at 33 uM measured at 10 secs time interval for 90 secs by spectrophotometric analysis (reference value: 47.82%); type: functional, subcellular; design: scale not given: the % may be the effect or the level left; details: Capra hircus, Heart, Mitochrondria
[22] = system: Mitochondria; experiment: Protective activity against CuCl2/ascorbic acid-induced apoptotic alteration in goat cardiac mitochondria assessed as reversal of CuCl2/ascorbic acid-induced reduction in cytochrome c oxidase activity at 66 uM measured at 10 secs time interval for 90 secs by spectrophotometric analysis relative to control; type: functional, subcellular; details: Capra hircus, Heart, Mitochrondria
[23] = Toxicity in goat cardiac mitochondria assessed as effect on calcium accumulation at 66 uM after 60 mins by calcein AM dye-based flow cytometric analysis; type: subcellular, Capra hircus, Heart, Mitochrondria; details: 1 h
[24] = system: Mitochondria; experiment: Protection against CuCl2/ascorbic acid-induced depolarization of goat cardiac mitochondria at 66 uM after 60 mins by calcein AM dye-based flow cytometric analysis; type: functional, subcellular; details: Capra hircus, Heart, Mitochrondria
[25] = Binding affinity to Cu2+/ascorbate assessed as decrease in heat change at 66 uM in presence of ascorbic acid/CuCl2 by isothermal titration calorimetry
[26] = Binding affinity to ascorbate at 66 uM in presence of ascorbic acid by isothermal titration calorimetry

SMILES: CCOC(=O)c1c(-c2ccc(O)c(OC)c2)cn2c1c(=O)oc1ccccc12
- Activity [1]: inactive
- Activity [2]: Active
- Activity [3]: Dose-dependent effect
- IC50 [3]: 46.4 µM
- MEC [3]: 66 µM
- Activity [4]: 82.3%
- Ratio IC50 [5]: 0.78
- Activity [6]: Non-Toxic
- inhibition [7]: 12.3%
- inhibition [8]: 19.9%
- inhibition [9]: 28.2%
- inhibition [10]: 44%
- Activity [11]: Dose-dependent effect
- fold change (FC) [12]: 3.06
- fold change (FC) [13]: 3.52
- fold change (FC) [14]: 4.62
- fold change (FC) [15]: 2.08
- Activity [16]: Active
- Activity [17]: Non-Toxic
- fold change (FC) [18]: 4.42
- Activity [19]: Dose-dependent effect
- Activity [20]: 23.5%
- Activity [21]: 49.8%
- fold change (FC) [22]: 5.12
- Activity [23]: Non-Toxic
- Activity [24]: Active
- Activity [25]: Active
- K [26]: 4.6 ×10³ /M
